In ChEMBL document CHEMBL1255200, “Exploration of piperidine-4-yl-aminopyrimidines as HIV-1 reverse transcriptase inhibitors. N-Phenyl derivatives with broad potency against resistant mutant viruses” (Bioorg Med Chem Lett, 2010):
pIC50: −log10 of the molar value.

How the values were obtained:
[1] = system: Human immunodeficiency virus 1; assay: Antiviral activity against HIV1 harboring reverse transcriptase K103N/Y181C double mutant infected in human MT4 cells assessed as reduction of virus-induced cytopathic effect by replication assay in presence of 10% FBS; format: functional, organism-based; conditions: Human immunodeficiency virus 1, MT4
[2] = Clearance in human liver microsomes; format: ADME, Microsome
[3] = system: Human immunodeficiency virus 1; assay: Antiviral activity against HIV1 harboring reverse transcriptase V106A mutant infected in human MT4 cells assessed as reduction of virus-induced cytopathic effect by replication assay in presence of 10% FBS; format: functional, organism-based; conditions: Human immunodeficiency virus 1, MT4
[4] = system: Human immunodeficiency virus 1; assay: Antiviral activity against wild type HIV1 infected in human MT4 cells assessed as reduction of virus-induced cytopathic effect by replication assay in presence of 10% FBS; format: functional, organism-based; conditions: Human immunodeficiency virus 1, MT4
[5] = system: Human immunodeficiency virus 1; assay: Antiviral activity against HIV1 harboring reverse transcriptase Y188L mutant infected in human MT4 cells assessed as reduction of virus-induced cytopathic effect by replication assay in presence of 10% FBS; format: functional, organism-based; conditions: Human immunodeficiency virus 1, MT4
[6] = system: Human immunodeficiency virus 1; assay: Antiviral activity against HIV1 harboring reverse transcriptase K103N/L100I double mutant infected in human MT4 cells assessed as reduction of virus-induced cytopathic effect by replication assay in presence of 10% FBS; format: functional, organism-based; conditions: Human immunodeficiency virus 1, MT4
[7] = system: Human immunodeficiency virus 1; assay: Antiviral activity against wild type HIV1 infected in human MT4 cells assessed as reduction of virus-induced cytopathic effect by replication assay in presence of 40% human serum; format: functional, organism-based; conditions: Human immunodeficiency virus 1, MT4
[8] = system: Human immunodeficiency virus 1; assay: Selectivity ratio of IC50 for wild type HIV1 in presence of 40% human serum to IC50 for wild type HIV1 in presence of 10% FBS; format: functional
[9] = target: Human immunodeficiency virus type 1 reverse transcriptase (Human immunodeficiency virus 1, UniProt Q72547, Y188L); assay: Inhibition of HIV1 recombinant reverse transcriptase Y188L mutant by SPA heteropolymeric assay
[10] = target: Human immunodeficiency virus type 1 reverse transcriptase (Human immunodeficiency virus 1, UniProt Q72547, K103N/Y181C); assay: Inhibition of HIV1 recombinant reverse transcriptase K103N/Y181C double mutant by SPA heteropolymeric assay
[11] = target: Human immunodeficiency virus type 1 reverse transcriptase (Human immunodeficiency virus 1, UniProt Q72547); assay: Inhibition of HIV1 recombinant wild type reverse transcriptase by SPA heteropolymeric assay

SMILES | pIC50 [1] | microsomal CLint [2] | pIC50 [3] | pIC50 [4] | pIC50 [5] | pIC50 [6] | pIC50 [7] | Ratio IC50 [8] | pIC50 [9] | pIC50 [10] | pIC50 [11]
Cc1cc(C#N)cc(C)c1Oc1nc(NC2CCN(Cc3ccc(S(N)(=O)=O)cc3Cl)CC2)ncc1Br | 8.14 | 151 µL/min/mg | 8.70 | 8.21 | 8.55 | 8.23 | 7.31 | 8 |  |  | 
Cc1cc(C#N)cc(C)c1Oc1ccnc(NC2CCN(c3ccc(S(N)(=O)=O)cc3)CC2)n1 |  |  |  |  |  |  |  |  | < 6.00 | < 6.00 | 7.62
Cc1cc(C#N)cc(Cl)c1Nc1ccnc(NC2CCN(c3cccc(C(N)=O)c3)CC2)n1 |  |  |  |  |  |  |  |  |  | 7.44 | 7.44
Cc1cc(C#N)cc(C)c1Oc1nc(NC2CCN(c3cccc(C#N)c3)CC2)ncc1Br |  |  |  |  |  |  |  |  |  | 6.45 | 6.99
Cc1cc(C#N)cc(C)c1Oc1ccnc(NC2CCN(c3cccc(C#N)c3)CC2)n1 |  |  |  |  |  |  |  |  |  | 6.11 | 7.29
Cc1cc(C#N)cc(C)c1Oc1nc(NC2CCN(c3cccc(C(=O)O)c3)CC2)ncc1Br |  |  |  |  |  |  |  |  |  | < 6.00 | 7.80
Cc1cc(C#N)cc(C)c1Oc1ccnc(NC2CCN(c3ccc(Cl)c(C(N)=O)c3)CC2)n1 |  |  |  |  |  |  |  |  |  | 6.72 | 8.05
Cc1cc(C#N)cc(C)c1Oc1ccnc(NC2CCN(c3cc(Cl)cc(C(N)=O)c3)CC2)n1 |  |  |  |  |  |  |  |  |  | 6.58 | 7.55
Cc1cc(C#N)cc(C)c1Oc1nc(NC2CCN(c3cc(C(N)=O)ccc3Cl)CC2)ncc1Br |  |  |  |  |  |  |  |  | 6.06 | < 6.00 | 7.12
Cc1cc(C#N)cc(C)c1Oc1nc(NC2CCN(c3cccc(C(N)=O)c3)CC2)ncc1Cl |  |  |  |  |  |  |  |  | 6.69 | 7.89 | 7.62
Cc1cc(C#N)cc(C)c1Oc1nc(NC2CCN(c3cccc(C(N)=O)c3)CC2)ncc1F |  |  |  |  |  |  |  |  | 7.46 | 7.85 | 7.85
Cc1cnc(NC2CCN(c3cccc(C(N)=O)c3)CC2)nc1Oc1c(C)cc(C#N)cc1C | 8.42 | 730 µL/min/mg | 9.22 | 8.96 | > 8.92 | 8.17 | 8.35 | 4 |  | 7.82 | 7.92
Cc1cc(C#N)cc(C)c1Oc1nc(NC2CCN(c3cccc(C(N)=O)c3)CC2)ncc1C(F)(F)F |  |  |  |  |  |  |  |  |  | 7.39 | 7.07
Cc1cc(C#N)cc(C)c1Oc1nc(NC2CCN(c3cccc(C(N)=O)c3)CC2)ncc1N |  |  |  |  |  |  |  |  | 6.93 | 7.77 | 7.72
Cc1cc(C#N)cc(C)c1Oc1nc(NC2CCN(c3cccc(C(N)=O)c3)CC2)ncc1[N+](=O)[O-] |  |  |  |  |  |  |  |  |  | 7.19 | 6.96
Cc1cc(C#N)cc(Cl)c1Oc1ccnc(NC2CCN(c3cccc(C(N)=O)c3)CC2)n1 | 8.28 | 274 µL/min/mg |  | 9.40 | 8.80 | 7.38 | 8.12 | 17.4 |  | 8.10 | 8.10
Cc1cc(C#N)cc(Cl)c1Oc1nc(NC2CCN(c3cccc(C(N)=O)c3)CC2)ncc1Br |  |  |  |  |  |  |  |  | 6.38 | 7.55 | 7.55
Cc1cc(C#N)cc(Cl)c1Oc1nc(NC2CCN(c3cccc(C(N)=O)c3)CC2)ncc1Cl |  |  |  |  |  |  |  |  | 7.32 | 7.70 | 7.70
Cc1cnc(NC2CCN(c3cccc(C(N)=O)c3)CC2)nc1Oc1c(C)cc(C#N)cc1Cl | 8.26 | 580 µL/min/mg | 9.15 | 8.80 | 8.85 | 8.13 | 7.85 | 8.6 |  | 8.22 | 8.22

SMILES | pIC50 [1] | microsomal CLint [2] | pIC50 [3] | pIC50 [4] | pIC50 [5] | pIC50 [6] | pIC50 [7] | Ratio IC50 [8] | pIC50 [9] | pIC50 [10] | pIC50 [11]
COc1cc(C#N)cc(C)c1Oc1ccnc(NC2CCN(c3cccc(C(N)=O)c3)CC2)n1 |  |  |  |  |  |  |  |  | 7.19 | 7.74 | 7.74
COc1cc(C#N)cc(C)c1Oc1nc(NC2CCN(c3cccc(C(N)=O)c3)CC2)ncc1Br |  |  |  |  |  |  |  |  |  | 7.25 | 7.25
COc1cc(C#N)cc(C)c1Oc1nc(NC2CCN(c3cccc(C(N)=O)c3)CC2)ncc1Cl |  |  |  |  |  |  |  |  | 7.00 | 7.72 | 7.72
COc1cc(C#N)cc(C)c1Oc1nc(NC2CCN(c3cccc(C(N)=O)c3)CC2)ncc1C |  |  |  |  |  |  |  |  | 7.18 | 7.68 | 7.68
Cc1cc(C#N)cc(F)c1Oc1nc(NC2CCN(c3cccc(C(N)=O)c3)CC2)ncc1Br | 7.55 | 82 µL/min/mg | 8.41 | 8.14 | 8.26 | 7.74 | 7.74 | 2.5 | 7.54 | 8.22 | 8.22
Cc1cc(C#N)cc(C)c1Nc1ccnc(NC2CCN(c3cccc(C(N)=O)c3)CC2)n1 | 7.82 | 31 µL/min/mg | 9.10 | 9.30 | 8.43 | < 7.00 | 7.86 | 27.1 |  | 7.64 | 7.64
Cc1cc(C#N)cc(C)c1Nc1nc(NC2CCN(c3cccc(C(N)=O)c3)CC2)ncc1Br | 7.93 | 42 µL/min/mg | 9.05 | 8.82 | 8.57 | 7.97 | 7.85 | 9.8 | 7.12 | 7.72 | 7.72
Cc1cc(C#N)cc(C)c1Oc1nc(NC2CCN(c3cccc(S(N)(=O)=O)c3)CC2)ncc1Br |  |  |  |  |  |  |  |  | 6.98 | 7.14 | 7.72
Cc1cc(C#N)cc(C)c1Oc1ccnc(NC2CCN(c3cccc(S(N)(=O)=O)c3)CC2)n1 |  |  |  |  |  |  |  |  | 6.71 | 6.21 | 7.82
Cc1cc(C#N)cc(Cl)c1Nc1nc(NC2CCN(c3cccc(C(N)=O)c3)CC2)ncc1Br | 8.31 | 418 µL/min/mg | 9.30 | 8.92 | > 8.92 | 8.54 | 8.00 | 8.6 | 7.38 | 7.82 | 7.82
Cc1cc(C#N)cc(C)c1Oc1nc(NC2CCN(c3ccccc3C(N)=O)CC2)ncc1Br |  |  |  |  |  |  |  |  |  | 6.01 | 7.49
Cc1cc(C#N)cc(C)c1Oc1nc(NC2CCN(c3cccc(C(N)=O)c3)CC2)ncc1Br |  |  |  |  |  |  |  |  | 7.15 | 7.52 | 7.72
Cc1cc(C#N)cc(C)c1Oc1ccnc(NC2CCN(c3cccc(C(N)=O)c3)CC2)n1 |  |  |  |  |  |  |  |  | 7.47 | 7.80 | 8.15
Cc1cc(C#N)cc(C)c1Oc1nc(NC2CCN(c3ccc(C(N)=O)cc3)CC2)ncc1Br |  |  |  |  |  |  |  |  |  | < 6.00 | 7.62
Cc1cc(C#N)cc(C)c1Oc1nc(NC2CCN(c3cccc(S(C)(=O)=O)c3)CC2)ncc1Br |  |  |  |  |  |  |  |  | 6.08 | 7.00 | 7.38
Cc1cc(C#N)cc(C)c1Oc1ccnc(NC2CCN(c3cccc(S(C)(=O)=O)c3)CC2)n1 |  |  |  |  |  |  |  |  |  | 6.62 | 7.96
O=C1Nc2ccc(Cl)cc2[C@@](C#CC2CC2)(C(F)(F)F)O1 [EFAVIRENZ] | 7.08 |  |  |  | < 7.00 | < 7.00 |  |  |  |  | 
Cc1cc(C#N)cc(C)c1Oc1nc(Nc2ccc(C#N)cc2)nc(N)c1Br [ETRAVIRINE] | 8.04 | 29 µL/min/mg |  |  |  |  |  |  |  |  | 
